Earlier results, collected in patent US12220416B2, “Methylene-tetrahydrofolate reductase isoform-based biomarker and method of use thereof” (RUSH UNIVERSITY MEDICAL CENTER, priority 2017, dated 2025).

Settings: RA patients on MTX therapy; ADEs provoke discontinuation of MTX therapy; ref [38]

CN(Cc1cnc2nc(N)nc(N)c2n1)c1ccc(C(=O)N[C@@H](CCC(=O)O)C(=O)O)cc1 [MTX, Methotrexate]
RA patients developing MTX-related adverse drug events (ADEs): approximately 30%
